This is an account of results in US20200216416A1, “QUINOLINE COMPOUNDS AS INHIBITORS OF TAM AND MET KINASES” (Array BioPharma Inc., priority 2019, published 2020).

The target in assay [1] is T1, human MET kinase Y1230S (Homo sapiens, UniProt P08581, Y1230S).
T1 construct: GST-tagged recombinant human MET kinase domain; purchased Signal Chem
As to the kind of experiment: c-Met Enzyme Assay, Y1230S mutant. Type of assay: binding. The following applies: averaged IC50; Y1230S 8 nM; 60-minute incubation at 22° C.; read-out: Y1230 S IC50. The procedure: (§1) The affinity of compound binding to wild type and mutant human MET kinases was measured using Invitrogen's LanthaScreen™ Eu Kinase Binding technology. Briefly, GST-tagged recombinant human MET kinase domain from Signal Chem (see Table 8 below for concentration in assay) was incubated with 50 nM Alexa-Fluor® Tracer 236 (Invitrogen Cat No. PR9078A) and 2 nM Europium-anti-GST (Invitrogen Cat. No. A15116) along with test compound in a buffer consisting of 25 mM HEPES, pH 7.4, 10 mM MgCl2, 0.01% Triton X-100, 1mM DTT, and 2% DMSO. Compounds were typically prepared in a three-fold serial dilution in DMSO and added to the assay to give the appropriate final concentration. After a 60-minute incubation at 22° C., the reaction was measured using a PerkinElmer EnVision multimode plate reader via TR-FRET dual wavelength detection, and the percent of control (POC) calculated using a ratiometric emission factor. […] The POC values were fit to a 4 parameter logistic curve and the IC50 value is point where the curve crosses 50 POC.

For assay [2], the target named is T2, MET (wt) GST-tagged recombinant human MET kinase domain (Homo sapiens, UniProt P08581).
T2 construct: GST-tagged recombinant human MET kinase domain; purchased Signal Chem
T2 sequence (P08581 1078-1345 limits assumed): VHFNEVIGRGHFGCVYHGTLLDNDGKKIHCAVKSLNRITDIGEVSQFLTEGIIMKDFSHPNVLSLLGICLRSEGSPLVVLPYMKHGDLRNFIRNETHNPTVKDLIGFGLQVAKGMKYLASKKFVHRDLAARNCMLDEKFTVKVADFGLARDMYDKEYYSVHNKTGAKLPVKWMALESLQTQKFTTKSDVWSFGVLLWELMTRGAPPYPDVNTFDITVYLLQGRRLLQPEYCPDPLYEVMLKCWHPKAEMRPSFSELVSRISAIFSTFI
As to the kind of experiment: c-Met Enzyme Assay, wild type (LanthaScreen Eu Kinase Binding). The following applies: averaged IC50; MET (wt) 10 nM; 60-minute incubation at 22° C.; read-out: SigChem WT IC50. As to the method:
as §1
For orientation: Time-resolved FRET reads energy transfer from a long-lived donor to a nearby acceptor.

In assay [3] the target is T3, human MET kinase Y1230H (Homo sapiens, UniProt P08581, Y1230H).
T3 construct: GST-tagged recombinant human MET kinase domain; purchased Signal Chem
T3 sequence (P08581 1078-1345 Y1230H): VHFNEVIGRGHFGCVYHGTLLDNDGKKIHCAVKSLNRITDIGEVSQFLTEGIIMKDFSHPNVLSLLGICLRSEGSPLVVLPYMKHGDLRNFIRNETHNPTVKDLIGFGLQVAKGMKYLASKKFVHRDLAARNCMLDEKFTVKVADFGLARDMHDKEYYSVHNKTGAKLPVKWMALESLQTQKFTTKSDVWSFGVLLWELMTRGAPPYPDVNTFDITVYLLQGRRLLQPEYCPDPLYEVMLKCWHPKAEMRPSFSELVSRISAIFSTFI
As to the kind of experiment: c-Met Enzyme Assay, Y1230H mutant. The conditions noted are these: averaged IC50; Y1230H 5 nM; 60-minute incubation at 22° C.; read-out: Y1230 H IC50. The assay is classed as binding. The procedure:
as §1

The target in assay [4] is T4, human MET kinase D1228N (Homo sapiens, UniProt P08581, D1228N).
T4 construct: GST-tagged recombinant human MET kinase domain; purchased Signal Chem
T4 sequence (P08581 1078-1345 D1228N): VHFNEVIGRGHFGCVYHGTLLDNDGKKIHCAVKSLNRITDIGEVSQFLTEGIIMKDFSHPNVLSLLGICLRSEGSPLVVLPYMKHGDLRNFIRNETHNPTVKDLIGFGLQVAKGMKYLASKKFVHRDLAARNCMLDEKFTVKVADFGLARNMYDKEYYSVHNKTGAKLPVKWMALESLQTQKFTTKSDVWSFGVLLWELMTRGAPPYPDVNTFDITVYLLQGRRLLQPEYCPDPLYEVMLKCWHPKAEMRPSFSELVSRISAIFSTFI
As to the kind of experiment: c-Met Enzyme Assay, D1228N mutant. The assay is classed as binding. The conditions noted are these: averaged IC50; D1228N 2 nM; 60-minute incubation at 22° C.; read-out: D1228 N IC50. The procedure:
as §1

Assay [5] addresses T5, His-tagged recombinant human AXL cytoplasmic domain (Homo sapiens, UniProt P30530).
T5 construct: His-tagged recombinant human AXL cytoplasmic domain
T5 sequence (P30530 473-894 limits assumed): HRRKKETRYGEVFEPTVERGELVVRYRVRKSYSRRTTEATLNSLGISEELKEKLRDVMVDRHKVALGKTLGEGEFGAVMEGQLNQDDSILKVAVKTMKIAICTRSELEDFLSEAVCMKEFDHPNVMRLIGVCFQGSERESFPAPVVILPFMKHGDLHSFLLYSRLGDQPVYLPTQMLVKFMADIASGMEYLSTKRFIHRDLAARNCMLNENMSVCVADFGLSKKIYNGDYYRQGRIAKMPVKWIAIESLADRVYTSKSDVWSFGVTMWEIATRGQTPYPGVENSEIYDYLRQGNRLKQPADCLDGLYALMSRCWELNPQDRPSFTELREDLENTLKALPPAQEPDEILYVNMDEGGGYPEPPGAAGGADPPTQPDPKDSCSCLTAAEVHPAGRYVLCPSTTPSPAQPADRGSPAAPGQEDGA
As to the kind of experiment: AXL Enzyme Assay (LanthaScreen Eu Kinase Binding). The following applies: averaged IC50; 60-minute incubation at 22° C.; TR-FRET. The procedure: (§2) Compounds disclosed herein were screened for their ability to inhibit AXL kinase using Invitrogen's LanthaScreen™Eu Kinase Binding technology. His-tagged recombinant human AXL cytoplasmic domain was incubated with 20 nM Alexa-Fluor® Tracer 236 (PR9078A), 2 nM biotinylated anti-His (Cat. No. M4408), and 2 nM europium-labeled Streptavidin (Cat. No. PV5899) along with test compound in a buffer consisting of 25 mM HEPES, pH 7.4, 10 mM MgCl2, 0.01% Triton X-100, and 2% DMSO. Compounds were typically prepared in a threefold serial dilution in DMSO and added to the assay to give the appropriate final concentration. After a 60-minute incubation at 22° C., the reaction was measured using a PerkinElmer EnVision multimode plate reader via TR-FRET dual wavelength detection, and the percent of control (POC) was calculated using a ratiometric emission factor. […] The POC values are fit to a 4 parameter logistic curve and the IC50 value is point where the curve crosses 50 POC.

Assay [6] addresses T6, His-tagged recombinant human MER cytoplasmic domain (Homo sapiens, UniProt Q12866).
T6 construct: His-tagged recombinant human MER cytoplasmic domain
T6 sequence (Q12866 527-999 limits assumed): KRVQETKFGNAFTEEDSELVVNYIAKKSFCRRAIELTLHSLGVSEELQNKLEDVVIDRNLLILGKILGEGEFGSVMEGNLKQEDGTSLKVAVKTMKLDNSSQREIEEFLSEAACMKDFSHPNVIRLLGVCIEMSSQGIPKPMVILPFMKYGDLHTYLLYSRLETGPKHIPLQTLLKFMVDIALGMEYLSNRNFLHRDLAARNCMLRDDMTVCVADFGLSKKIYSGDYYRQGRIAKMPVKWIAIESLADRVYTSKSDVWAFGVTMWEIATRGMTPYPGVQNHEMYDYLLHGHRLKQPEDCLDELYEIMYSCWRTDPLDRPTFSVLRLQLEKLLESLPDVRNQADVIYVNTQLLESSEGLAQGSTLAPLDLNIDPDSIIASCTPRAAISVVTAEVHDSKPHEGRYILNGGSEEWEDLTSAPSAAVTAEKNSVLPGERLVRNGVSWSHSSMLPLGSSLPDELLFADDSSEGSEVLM
As to the kind of experiment: MER Enzyme Assay (LanthaScreen Eu Kinase Binding). The conditions noted are these: averaged IC50; MER 5 nM; 60-minute incubation at 22° C.; TR-FRET. As to the method:
as §2, with “human MER” for “human AXL”, “domain (5 nM)” for “domain”, “mM MgCl 2,” for “mM MgCl2,”

The target of assay [7] is T7, human MET kinase D1228H (Homo sapiens, UniProt P08581, D1228H).
T7 construct: GST-tagged recombinant human MET kinase domain; purchased Signal Chem
T7 sequence (P08581 1078-1345 D1228H): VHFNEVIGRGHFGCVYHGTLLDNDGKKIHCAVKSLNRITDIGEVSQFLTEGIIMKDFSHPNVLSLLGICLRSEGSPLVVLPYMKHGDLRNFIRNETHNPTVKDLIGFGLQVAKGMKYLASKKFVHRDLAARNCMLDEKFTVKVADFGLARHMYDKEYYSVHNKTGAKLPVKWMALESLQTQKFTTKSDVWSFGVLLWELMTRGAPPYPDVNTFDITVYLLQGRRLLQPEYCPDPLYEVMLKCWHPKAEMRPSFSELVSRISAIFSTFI
As to the kind of experiment: c-Met Enzyme Assay, D1228H mutant. The following applies: averaged IC50; D1228H 2 nM; 60-minute incubation at 22° C.; read-out: D1228 H IC50. Type of assay: binding. As to the method: as §1

T1 sequence (P08581 1078-1345 Y1230S): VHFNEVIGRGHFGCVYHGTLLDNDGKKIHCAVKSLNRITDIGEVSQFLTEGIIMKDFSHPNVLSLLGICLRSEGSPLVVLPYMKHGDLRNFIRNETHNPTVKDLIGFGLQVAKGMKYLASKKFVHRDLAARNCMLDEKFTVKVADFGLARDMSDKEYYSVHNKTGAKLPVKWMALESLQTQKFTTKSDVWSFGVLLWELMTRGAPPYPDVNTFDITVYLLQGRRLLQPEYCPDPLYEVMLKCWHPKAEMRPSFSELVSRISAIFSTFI

As a reminder, the IC50 is the concentration that inhibits the measured activity by half. Turning to `CCCn1cc(C(=O)Nc2ccc(Oc3ccnc4cc(OC)c(OC)cc34)cn2)c(=O)c(-c2ccc(F)cc2)c1` [Example 10, N-(5((6,7-dimethoxyquinolin-4-yl)oxy)pyridin-2-yl)-5-(4-fluorophenyl)-4-oxo-1-propyl-1,4-dihydropyridine-3-carboxamide], the IC50 in assay [1] is 2.8 nM; in assay [2], 3.6 nM; in assay [3] it was 6.1 nM; in assay [4], 4.1 nM; in assay [5] it was 4 nM; in assay [6], 8 nM. For the same compound, the IC50 in assay [7] stood at 3.7 nM.
`COc1cc2nccc(Oc3ccc(NC(=O)c4cn(CC(C)C)cc(-c5ccc(F)cc5)c4=O)nc3)c2cc1OC` [Example 11, N-(5-((6,7-dimethoxyquinolin-4-yl)oxy)pyridin-2-yl)-5-(4-fluorophenyl)-1-isobutyl-4-oxo-1,4-dihydropyridine-3-carboxamide]: the IC50 came out at 4.9 nM in assay [1]; 7.8 nM in assay [2]; 9.3 nM in assay [3]; 9.4 nM in assay [4]; 5 nM in assay [5]; 16 nM in assay [6]. Besides, the half-inhibitory concentration (IC50) in assay [7] is 6.5 nM.
As for `COc1cc2nccc(Oc3ccc(NC(=O)c4cn(C5CCOCC5)cc(-c5ccc(F)cc5)c4=O)nc3)c2cc1OC` [Example 12, N-(5((6,7-dimethoxyquinolin-4-yl)oxy)pyridin-2-yl)-5-(4-fluorophenyl)-4-oxo-1-(tetrahydro-2H-pyran-4-yl)-1,4-dihydropyridine-3-carboxamide], the IC50 was determined as 4.6 nM in assay [1]; 5.4 nM in assay [2]; 5.4 nM in assay [3]; 9.7 nM in assay [4]; 2 nM in assay [5]; 4 nM in assay [6]. Moreover, in assay [7], the IC50 amounted to 8.4 nM.
`COc1cc2nccc(Oc3ccc(NC(=O)c4cn(CC(=O)N(C)C)cc(-c5ccc(F)cc5F)c4=O)nc3)c2cc1OC` [Example 13, 5-(2,4-difluorophenyl)-N-(5((6,7-dimethoxyquinolin-4-yl)oxy)pyridin-2-yl)-1-(2-(dimethylamino)-2-oxoethyl)-4-oxo-1,4-dihydropyridine-3-carboxamide]: the IC50 in assay [1] came to 6 nM; in assay [2], 3.4 nM; in assay [3] it was 5.7 nM; in assay [4], 11.6 nM; in assay [5], 2 nM; in assay [6] it was 5 nM. The IC50 in assay [7] was determined as 4.4 nM.
For the compound `COc1cc2nccc(Oc3ccc(NC(=O)c4cn(CC(=O)N5CCCC5)cc(-c5ccc(F)cc5F)c4=O)nc3)c2cc1OC` [Example 14], the 50% inhibitory concentration (IC50) in assay [1] is 16.3 nM; in assay [2], 7.7 nM; in assay [3], 22.3 nM; in assay [4], 30.6 nM; in assay [5] it was 2 nM; in assay [6], 12 nM. Moreover, the half-maximal inhibitory concentration (IC50) in assay [7] amounted to 35.4 nM.
For `COc1cc2nccc(Oc3ccc(NC(=O)c4cn(CC(=O)N5CCOCC5)cc(-c5ccc(F)cc5F)c4=O)nc3)c2cc1OC` [Example 15, 5-(2,4-difluorophenyl)-N-(5-((6,7-dimethoxyquinolin-4-yl)oxy)pyridin-2-yl)-1-(2-morpholino-2-oxoethyl)-4-oxo-1,4-dihydropyridine-3-carboxamide], the IC50 turned out to be 53.3 nM in assay [1]; 33.8 nM in assay [2]; 37.5 nM in assay [3]; 73.7 nM in assay [4]; 2 nM in assay [5]; 29 nM in assay [6]. The IC50 in assay [7] stood at 99.1 nM.
Turning to `CCC(CC)n1cc(C(=O)Nc2ccc(Oc3ccnc4cc(OC)c(OC)cc34)cn2)c(=O)c(-c2ccc(F)cc2F)c1` [Example 16, 5-(2,4-difluorophenyl)-N-(5-((6,7-dimethoxyquinolin-4yl)oxy)pyridin-2-yl)-4-oxo-1-(pentan-3-yl)-1,4-dihydropyridine-3-carboxamide], the half-inhibitory concentration (IC50) amounted to 6 nM in assay [1]; 6.1 nM in assay [2]; 7.7 nM in assay [3]; 8.1 nM in assay [4]; 4 nM in assay [5]; 9 nM in assay [6]. Besides, the 50% inhibitory concentration (IC50) in assay [7] was found to be 5.4 nM.
